Literature values as cited in paper PMC4738315, “How to unveil self-quenched fluorophores and subsequently map the subcellular distribution of exogenous peptides” (Scientific Reports, 2016).

Molecular target: anionic phospholipids (DOPC/DOPG or POPC/POPG)
Conditions: POPC/POPG 75:25; ref 9 (Gonçalves et al., 2005); read-out: Affinity for PLs, Kd
Text: page 25: Supplementary Table 1: Sequences of the three studied CPPs and their respective affinities for glycosaminoglycans or anionic phospholipids. Peptide Sequence Affinity for HS, Kd, µM[a] Affinity for PLs, Kd, µM Penetratin (Pen)3 RQIKIWFQNRRMKWKK nd[b] 63 (DOPC/DOPG 90:10)4 Tat peptide (Tat)5 YGRKKRRQRRR 1.676 83 (POPC/POPG 75:25)7 Arg98 RRRRRRRRR 0.329 12 (POPC/POPG 75:25)9 [a] HS: heparan sulfate. [b] nd: not determined. 25

RRRRRRRRR [Arg9, nona-arginine, nona-arginine cell-penetrating peptide]
Kd: 12 µM
